Experimental data reported in patent publication US7709497B2, “Pyrazolo[3,4-b]pyridine compound, and its use as a PDE4 inhibitor” (Glaxo Group Limited, priority 2004, dated 2010).

Experiments:
[1] = system: Dinitrofluorobenzene (DNFB)-induced delayed type hypersensitivity (DTH) response in pigs; experiment: Pig model of atopic dermatitis: DNFB-induced DTH response, skin topical administration; type: in vivo
Source text: The pig DTH (delayed type hypersensitivity) model of contact hypersensitivity utilizes the Th2-mediated inflammatory response in pig skin to mimic the pathology of atopic dermatitis in humans. The model measures the potential anti-inflammatory effect of compounds, topically-applied to the skin, on the acute DTH (delayed type hypersensitivity) response in castrated male Yorkshire pigs.
In general in the assay, pigs (domestic Yorkshire pigs, 15-18 kg at time of sensitization, castrated males) are first sensitized by topical application of ca. 10% (w/v) dinitrofluorobenzene (DNFB) dissolved in DMSO:acetone:olive oil (ca. 1:5:3) (ca. 40 mg DNFB, 400 microlitre solution total) to the ears (outer) and groin (inner). The pigs are then challenged 12 days later with ca. 0.6% (w/v) DNFB applied to randomized sites on the shaved back of the pigs (ca. 90 micrograms/site; sites are identified and numbered by grid made with marking pen).
On the day of challenge, the treatments are performed at about 2 hours prior to and about 6 hours after challenge (for DMSO/acetone solutions/suspensions, to maximize exposure to drug), or at about 30 minutes after and about 6 hours after challenge (for topical ointments or creams, representing a more clinically relevant treatment protocol).
One day (about 24 hrs) after challenge, and optionally again at ca. 48 hrs post challenge, test sites are visually evaluated for intensity and extent of erythema by measuring the diameter of the reaction at its widest point and assigning scores of 0 to 4 for each of erythema intensity and erythema extent. Induration (a measure of swelling) is also scored 0 to 4. Scores for erythema intensity, erythema extent and induration are assigned according to the following criteria: Intensity of Erythema: 0=normal, 1=minimal, barely visible, 2=mild, 3=moderate, 4=severe. Extent of Erythema (not raised): 0=no edema, 1=macules of pin head size, 2=lentil sized macules, 3=confluent macules, 4=diffuse over entire site. Induration (palpable): 0=normal, 1=nodules of pin head size, 2=doughy lentil sized nodules, 3=confluent firm nodules, 4=diffuse hard lesion. The summed visual score at ca. 24 hours includes the individual scores for erythema intensity, erythema extent, and induration; so the maximal summed score for each site would be 12. High summed scores can generally indicate a high inflammatory response. Visual scores are subject to some inaccuracy/error.
Differences in the summed score between adjacent control (placebo) and treatment sites on the grids are calculated. This difference value is then used to determine the percent inhibition compared to the summed score for the control (placebo) sites. The more negative the difference value, the greater the calculated inhibition. Percent inhibition of (percent inhibition compared to) the mean summed score can be calculated.
About 24 hours after challenge, treatment sites can optionally also be visually evaluated for lesion area.
The anti-inflammatory effect of the compound of formula (I) (“free base” form), applied topically to the skin, on the acute DTH response in castrated male Yorkshire pigs is compared to that of another PDE4 inhibitor cipamfylline (BRL-61063) and the topical immunomodulator pimecrolimus.
In the above assay, the compound of formula (I) is topically administered: either (A) at ca. 2.5% (w/v) concentration in a solution of ca. 10% DMSO/90% acetone (ca. 50 microliters or ca. 1.5 mg/site) at about 2 hours prior to and about 6 hours after the DNFB challenge; or (B) at ca. 0.5% (w/w) concentration in an ointment containing propylene glycol (PG)*(ca. 25 mg of formulation/site) at about 30 minutes after and about 6 hours after the DNFB challenge. […]

[2] = Aqueous solubility preliminary screen; type: physicochemical; details: pH 7.4 phosphate buffered saline with about 5% DMSO, aqueous with cosolvent or surfactant or cyclodextrin, free base, pH 7.4 PBS with about 5% DMSO, about room temperature
Procedure: Aqueous solubility: A preliminary screen aims to estimate roughly the aqueous solubility of compounds by (as an approximate summary): (i) creating a ca. 10 mM solution of the compound in DMSO, (ii) diluting a portion of this DMSO solution by mixing about 19 parts by volume of pH 7.4 aqueous phosphate buffered saline (PBS) buffer with 1 part by volume of the ca. 10 mM DMSO solution, (iii) “filtering” the mixture with the aid of centrifugation, and then (iv) measuring the concentration of the dissolved compound in the “filtrate”.

solubility kinetic [2]: ~60 µg/mL
SMILES: CCn1ncc2c(NC3CCN(C(N)=O)CC3)c(C(=O)NCc3ccc(C)c(C)c3)cnc21 [compound of formula (I), 4-{[1-(aminocarbonyl)-4-piperidinyl]amino}-N-[(3,4-dimethylphenyl)methyl]-1-ethyl-1H-pyrazolo[3,4-b]pyridine-5-carboxamide]
inhibition of mean summed score (erythema intensity, erythema extent, induration) ([1]; ca. 0.5% (w/w) in PG ointment, vs placebo PG ointment, ca. 24 h after challenge, p<0.05 by ANOVA): 13-14%
reduction in mean summed score ([1]; ca. 2.5% (w/v) in DMSO/acetone solution, vs vehicle alone, ca. 24 h after challenge): about 21%
lesion area ([1]; skin administration in DMSO/acetone or PG ointment, subject to some inaccuracy/error): decrease the lesion area
